# Tests used:
# [1] = tested on: CAKI-1; assay: NCI60 five-dose screen; format: cell-based; settings: Homo sapiens, CAKI-1, renal cancer; for CC50: read-out: LC50 (the source's name)
# [2] = tested on: DU-145; assay: NCI60 five-dose screen; format: cell-based; settings: Homo sapiens, DU-145, prostate cancer; for CC50: read-out: LC50 (the source's name)
# [3] = tested on: CCRF-CEM; assay: NCI60 five-dose screen; format: cell-based; settings: Homo sapiens, leukemia; for CC50: read-out: LC50 (the source's name)
# [4] = tested on: SK-MEL-5; assay: NCI60 five-dose screen; format: cell-based, human; settings: Homo sapiens; for CC50: SK-MEL-5, SK-MEL-5, melanoma, read-out: LC50 (the source's name); for GI50: SK-MEL-5, melanoma
# [5] = tested on: HCT-116; assay: NCI60 five-dose screen; format: cell-based; settings: Homo sapiens, HCT-116, colon cancer; for CC50: read-out: LC50 (the source's name)
# [6] = tested on: SNB-75; assay: NCI60 five-dose screen; format: cell-based; settings: Homo sapiens, SNB-75, CNS cancer; for CC50: read-out: LC50 (the source's name)
# [7] = tested on: NCI-H522; assay: NCI60 five-dose screen; format: cell-based; settings: Homo sapiens, NCI-H522, NSC lung cancer; for CC50: read-out: LC50 (the source's name)
# [8] = tested on: HT29; assay: NCI60 five-dose screen; format: cell-based; settings: Homo sapiens, HT-29, HT29, colon cancer; for CC50: read-out: LC50 (the source's name)
# [9] = tested on: OVCAR-5; assay: NCI60 five-dose screen; format: cell-based; settings: Homo sapiens, OVCAR-5, ovarian cancer; for CC50: read-out: LC50 (the source's name)
# [10] = tested on: OVCAR-8; assay: NCI60 five-dose screen; format: cell-based; settings: Homo sapiens, OVCAR-8, ovarian cancer; for CC50: read-out: LC50 (the source's name)
# [11] = tested on: K-562; assay: NCI60 five-dose screen; format: cell-based; settings: Homo sapiens, K562, K-562, leukemia; for CC50: read-out: LC50 (the source's name)
# [12] = tested on: SNB-19; assay: NCI60 five-dose screen; format: cell-based; settings: Homo sapiens, SNB-19, CNS cancer; for CC50: read-out: LC50 (the source's name)
# [13] = tested on: NCI-H460; assay: NCI60 five-dose screen; format: cell-based; settings: Homo sapiens, NCI-H460, NSC lung cancer; for CC50: read-out: LC50 (the source's name)
# [14] = tested on: MDA-MB-435; assay: NCI60 five-dose screen; format: cell-based, human; settings: Homo sapiens; for CC50: MDA-MB-435, MDA-MB-435, melanoma, read-out: LC50 (the source's name); for GI50: MDA-MB-435, melanoma
# [15] = tested on: UACC-257; assay: NCI60 five-dose screen; format: cell-based; settings: Homo sapiens, UACC-257, melanoma; for CC50: read-out: LC50 (the source's name)
# [16] = tested on: OVCAR-4; assay: NCI60 five-dose screen; format: cell-based; settings: Homo sapiens, OVCAR-4, ovarian cancer; for CC50: read-out: LC50 (the source's name)
# [17] = target: T1, Human CYP19 (aromatase) (Homo sapiens, UniProt P11511); assay: Aromatase inhibition assay (DBF fluorometric substrate); format: biochemical; settings: active defined as IC50 < 12.5 µM
# T1 construct: purchased GENTEST, Woburn, MA 456260; host or cells: baculovirus/insect cells
# T1 sequence (P11511 1-503): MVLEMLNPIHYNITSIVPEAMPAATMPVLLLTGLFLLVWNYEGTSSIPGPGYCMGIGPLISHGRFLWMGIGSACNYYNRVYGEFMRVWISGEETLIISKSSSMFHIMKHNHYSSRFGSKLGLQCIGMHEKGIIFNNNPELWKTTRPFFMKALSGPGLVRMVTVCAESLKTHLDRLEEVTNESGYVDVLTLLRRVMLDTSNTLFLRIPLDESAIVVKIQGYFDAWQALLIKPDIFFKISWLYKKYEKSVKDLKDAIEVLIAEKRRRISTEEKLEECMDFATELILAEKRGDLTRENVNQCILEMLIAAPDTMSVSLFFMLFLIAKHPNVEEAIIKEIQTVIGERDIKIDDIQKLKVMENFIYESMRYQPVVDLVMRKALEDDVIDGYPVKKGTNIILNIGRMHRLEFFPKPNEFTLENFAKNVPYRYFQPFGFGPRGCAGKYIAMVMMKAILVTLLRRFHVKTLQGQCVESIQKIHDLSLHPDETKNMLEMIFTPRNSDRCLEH
# Description: Aromatase enzyme was purchased from GENTEST, Woburn, MA01801, USA (Supersom human CYP19+oxidoreductase, baculovirus/insect cell-expressed; Product No. 456260). The aromatase inhibitory activity was performed using Human CYP19 enzymes and DBF as a fluorometric substrate as described by Stresser, et al.[41] with minor modifications. The mixture, containing 100 µL of cofactor/serial dilution buffer was pre-incubated in 37 °C for 10 min. […] After incubation at 37 °C for 30 min, the reaction was stopped by addition of 50 µL of 2.2 M NaOH. Fluorescence signal was monitored using an excitation wavelength of 490 nm and emission wavelength of 530 nm.
# [18] = tested on: ACHN; assay: NCI60 five-dose screen; format: cell-based; settings: Homo sapiens, renal cancer; for CC50: read-out: LC50 (the source's name)
# [19] = tested on: NCI-H226; assay: NCI60 five-dose screen; format: cell-based; settings: Homo sapiens, NCI-H226, NSC lung cancer; for CC50: read-out: LC50 (the source's name)
# [20] = tested on: 786-0; assay: NCI60 five-dose screen; format: cell-based; settings: Homo sapiens, 786-0, renal cancer; for CC50: read-out: LC50 (the source's name)
# [21] = tested on: HCC-2998; assay: NCI60 five-dose screen; format: cell-based; settings: Homo sapiens, HCC-2998, colon cancer; for CC50: read-out: LC50 (the source's name)
# [22] = tested on: LOX IMVI; assay: NCI60 five-dose screen; format: cell-based; settings: Homo sapiens, melanoma; for CC50: read-out: LC50 (the source's name)
# [23] = tested on: RPMI-8226; assay: NCI60 five-dose screen; format: cell-based; settings: Homo sapiens, RPMI-8226, leukemia; for CC50: read-out: LC50 (the source's name)
smiles,measurement,setting,value
"O=C(N/N=C/c1cc(Br)c[nH]1)c1[nH]c2ccc(Br)cc2c1-c1ccccc1 [Derivative 3e, (E)-5-Bromo-N′-((4-bromo-1H-pyrrol-2-yl)methylene)-3-phenyl-1H-indole-2-carbohydrazide]",GI50,[1],329 nM
same,CC50,[1],29 µM
same,GI50,[2],352 nM
same,CC50,[2],29.7 µM
same,GI50,[3],341 nM
same,CC50,[3],> 100 µM
same,CC50,[4],1.22 µM
same,GI50,[4],195 nM
same,GI50,[5],242 nM
same,CC50,[5],85 µM
same,GI50,[6],475 nM
same,CC50,[6],51 µM
same,GI50,[7],185 nM
same,CC50,[7],19.1 µM
same,GI50,[8],345 nM
same,CC50,[8],8.24 µM
same,GI50,[9],346 nM
same,CC50,[9],26.5 µM
same,GI50,[10],304 nM
same,CC50,[10],18.2 µM
same,GI50,[11],393 nM
same,CC50,[11],> 100 µM
same,GI50,[12],330 nM
same,CC50,[12],34.5 µM
same,GI50,[13],353 nM
same,CC50,[13],43.2 µM
same,CC50,[14],24.3 µM
same,GI50,[14],207 nM
same,GI50,[15],1090 nM
same,CC50,[15],47 µM
same,GI50,[16],1350 nM
same,CC50,[16],40.5 µM
same,IC50,[17],4000 ± 1000 nM
same,GI50,[18],418 nM
same,CC50,[18],23.5 µM
same,GI50,[19],382 nM
same,CC50,[19],29.9 µM
same,GI50,[20],727 nM
same,CC50,[20],55.9 µM
same,GI50,[21],296 nM
same,CC50,[21],15.6 µM
same,GI50,[22],360 nM
same,CC50,[22],6.98 µM
same,GI50,[23],346 nM
same,CC50,[23],> 100 µM
"O=C(N/N=C/c1cc(Br)c(Br)[nH]1)c1[nH]c2ccc(Br)cc2c1-c1ccccc1 [Derivative 3f, (E)-5-Bromo-N′-((4,5-dibromo-1H-pyrrol-2-yl)methylene)-3-phenyl-1H-indole-2-carbohydrazide]",GI50,[1],1380 nM
same,CC50,[1],40.9 µM
same,GI50,[2],3180 nM
same,CC50,[2],33.9 µM
same,GI50,[3],2890 nM
same,CC50,[3],> 100 µM
same,CC50,[4],8.65 µM
same,GI50,[4],1720 nM
same,GI50,[5],3240 nM
same,CC50,[5],> 100 µM
same,GI50,[6],1080 nM
same,CC50,[6],64.4 µM
same,GI50,[7],623 nM
same,CC50,[7],23.2 µM
same,GI50,[8],2330 nM
same,CC50,[8],20.8 µM
same,GI50,[9],3600 nM
same,CC50,[9],40.2 µM
same,GI50,[10],1980 nM
same,CC50,[10],17.2 µM
same,GI50,[11],1930 nM
same,CC50,[11],76.4 µM
same,GI50,[12],3470 nM
same,CC50,[12],39.3 µM
same,GI50,[13],2530 nM
same,CC50,[13],32.7 µM
same,CC50,[14],19.6 µM
same,GI50,[14],1010 nM
same,GI50,[15],3240 nM
same,CC50,[15],45.7 µM
same,GI50,[16],5200 nM
same,CC50,[16],45.8 µM
same,IC50,[17],1500 ± 300 nM
same,GI50,[18],2590 nM
same,CC50,[18],35.5 µM
same,GI50,[19],2280 nM
same,CC50,[19],32.5 µM
same,GI50,[20],4910 nM
same,CC50,[20],64.1 µM
same,GI50,[21],2300 nM
same,CC50,[21],24 µM
same,GI50,[22],2310 nM
same,CC50,[22],31.8 µM
same,GI50,[23],2270 nM
same,CC50,[23],> 100 µM
"O=C(N/N=C/c1[nH]ccc1Cl)c1[nH]c2ccc(Br)cc2c1-c1ccccc1 [Derivative 3g, (E)-5-Bromo-N′-((3-chloro-1H-pyrrol-2-yl)methylene)-3-phenyl-1H-indole-2-carbohydrazide]",GI50,[1],445 nM
same,CC50,[1],36.9 µM
same,GI50,[2],1580 nM
same,CC50,[2],33.1 µM
same,GI50,[3],1530 nM
same,CC50,[3],> 100 µM
same,CC50,[4],63 µM
same,GI50,[4],427 nM
same,GI50,[5],467 nM
same,CC50,[5],79.9 µM
same,GI50,[6],325 nM
same,CC50,[6],38.6 µM
same,GI50,[7],233 nM
same,CC50,[7],20.4 µM
same,GI50,[8],401 nM
same,CC50,[8],58.5 µM
same,GI50,[9],1100 nM
same,CC50,[9],35.7 µM
same,GI50,[10],481 nM
same,CC50,[10],27.7 µM
same,GI50,[11],413 nM
same,CC50,[11],> 100 µM
same,GI50,[12],1060 nM
same,CC50,[12],35.4 µM
same,GI50,[13],448 nM
same,CC50,[13],34.3 µM
same,CC50,[14],25.5 µM
same,GI50,[14],222 nM
same,GI50,[15],738 nM
same,CC50,[15],52 µM
same,GI50,[16],3090 nM
same,CC50,[16],43.5 µM
same,IC50,[17],2600 ± 500 nM
same,GI50,[18],627 nM
same,CC50,[18],34.5 µM
same,GI50,[19],1440 nM
same,CC50,[19],32.1 µM
same,GI50,[20],2580 nM
same,CC50,[20],50.2 µM
same,GI50,[21],1230 nM
same,CC50,[21],28.6 µM
same,GI50,[22],555 nM
same,CC50,[22],29.4 µM
same,GI50,[23],855 nM
same,CC50,[23],> 100 µM
"O=C(N/N=C/c1cc(Cl)c[nH]1)c1[nH]c2ccc(Br)cc2c1-c1ccccc1 [Derivative 3h, (E)-5-Bromo-N′-((4-chloro-1H-pyrrol-2-yl)methylene)-3-phenyl-1H-indole-2-carbohydrazide]",GI50,[1],253 nM
same,CC50,[1],27.5 µM
same,GI50,[2],352 nM
same,CC50,[2],27.2 µM
same,GI50,[3],132 nM
same,CC50,[3],> 100 µM
same,CC50,[4],3.08 µM
same,GI50,[4],228 nM
same,GI50,[5],331 nM
same,CC50,[5],29.1 µM
same,GI50,[6],247 nM
same,CC50,[6],75.5 µM
same,GI50,[7],211 nM
same,CC50,[7],> 100 µM
same,GI50,[8],287 nM
same,CC50,[8],7.2 µM
same,GI50,[9],473 nM
same,CC50,[9],36 µM
same,GI50,[10],214 nM
same,CC50,[10],0.988 µM
same,GI50,[11],234 nM
same,CC50,[11],5.64 µM
same,GI50,[12],638 nM
same,CC50,[12],61.9 µM
same,GI50,[13],281 nM
same,CC50,[13],9.24 µM
same,GI50,[14],185 nM
same,GI50,[15],856 nM
same,CC50,[15],58.8 µM
same,GI50,[16],555 nM
same,CC50,[16],34.1 µM
same,IC50,[17],1800 ± 400 nM
same,GI50,[18],493 nM
same,CC50,[18],32.1 µM
same,GI50,[19],604 nM
same,CC50,[19],> 100 µM
same,GI50,[20],459 nM
same,CC50,[20],39.8 µM
same,GI50,[21],224 nM
same,CC50,[21],4.2 µM
same,GI50,[22],370 nM
same,CC50,[22],16.7 µM
same,GI50,[23],446 nM
same,CC50,[23],> 100 µM

# Reference: paper PMC12203311, “Design, synthesis, in silico and in vitro evaluation of pyrrole–indole hybrids as dual tubulin and aromatase inhibitors with potent anticancer activities” (RSC Advances, 2025)
